pIC50: −log10 of the molar value.
Biological target: Tyrosine--tRNA ligase (Staphylococcus aureus)
Assay: Inhibitory activity against Staphylococcus aureus tyrosyl tRNA synthetase (YRS) using aminoacylation assay

## N[C@@H](Cc1ccc(O)cc1)C(=O)N[C@@H](C(=O)O)[C@@H]1OC[C@H](O)[C@H](O)[C@H]1O [[2-Amino-3-((S)-4-hydroxy-phenyl)-propionylamino]-((2S,3R,4S,5S)-3,4,5-trihydroxy-tetrahydro-pyran-2-yl)-acetic acid]
  pIC50: 6.59

From BindingDB's records for doi:10.1016/s0960-894x(01)00039-7 (Glaxosmithkline, 2001)
